Experiments:
Experiment in all cases: Liquid phase testing (bacterial growth, OD600)
[1] = test system: resistant Staphylococcus aureus; format: cell-based; conditions: S. aureus, 30 μg/ml positive control
Experimental: (§1) Stock solutions of extracts were prepared in dimethylsulfoxide (DMSO) at 10 mg/ml and stored in 200 μl aliquots at −20° C. until used. Two pathological agents were assessed: resistant Staphylococcus aureus and resistant Staphylococcus pseudointermedius. Three concentrations of each extract (5, 10 and 25 μg/ml) were evaluated in triplicate for each trial. Vehicle alone served as negative control. […] For selected samples, studies were repeated at 100 and 50 μg/ml.
(§2) A standard micro or mini-prep chase study was conducted. Briefly, liquid media was inoculated with a starting bolus of 0.01% bacteria and spiked with test extract at the study concentrations. Samples were incubated (shaking, 37° C.) overnight for 16 hours and bacterial growth enumerated by UV spectrometry in quadruplicate.

[2] = test system: resistant Staphylococcus pseudointermedius; format: cell-based, Staphylococcus pseudintermedius; conditions: S. pseudo, 30 μg/ml positive control
Experimental: as §1, §2

P. acnes = format: cell-based, Propionibacterium acnes; conditions: 30 μg/ml positive control
[3] = higher concentration study (Table 4)

## O=C(N[C@H](CO)[C@H](O)c1ccc([N+](=O)[O-])cc1)C(Cl)Cl [CAP, Chloramphenicol]
[1]; Table 2
  OD600: 0.023
[1]; [3]
  OD600: 0.002
[2]; Table 2
  OD600: 0.021
[2]; [3]
  OD600: 0.004
P. acnes; Table 2
  OD600: 0.005
P. acnes; [3]
  OD600: 0.000
